Test results taken from BindingDB's records for doi:10.1002/cbic.201500668 (University of Siena, 2016).

Legend:
[1] = molecular target: T1, Gag-Pol polyprotein (Human immunodeficiency virus type 1 group M subtype B (isolate NY5), UniProt P12497); assay: RNase H (RH) Assay; details: pH 7.8; 37 °C
Protocol: HIV RT-associated RNase H activity was measured as previously described.[J. Med. Chem. 2014, 57:3223-3234] Briefly, the reaction mixture comprised Tris HCl ([…], 50 mm, pH 7.8) containingMgCl2 (6 mm), dithiothreitol (1 mm), KCl (80 mm), hybrid RNA/DNA 5'-GAUCU GAGCC UGGGA GCU-Fluorescin-3' (0.25 mm; HPLC, dry, QC: Mass Check; Metabion, Steinkirchen, Germany), 5'-Dabcyl-AGCTC CCAGG CTCAG ATC-3' (HPLC, dry, QC: Mass Check), and HIV-1 RT (20 ng, according to a linear range of dose-activity curve). The reaction mixture was incubated for 1 h at 37 °C, and the reaction was stopped by addition of EDTA; products were measured with a Victor 3 multilabel counter plate reader (model 1420-051; PerkinElmer) equipped with filters (lex=490 nm, lem=528 nm).

[2] = molecular target: T1, Gag-Pol polyprotein; assay: RNA-dependent DNA Polymerase (RDDP) Assay; details: pH 8.1; 37 °C
Protocol: RNA-dependent DNA polymerase (RDDP) activity was measured as described[J. Microbiol. […] After enzyme addition, the reaction mixture was incubated for 30 min at 37 °C, then the reaction was stopped by addition of EDTA.

SMILES	IC50 [1]	IC50 [2]
Cn1c(=O)c2c(nc3n2CC(O)CN3c2ccc(O)cc2)n(C)c1=O (stereo unspecified) [MAS0 (1)]	100 µM	> 100 µM
CCOC(=O)C(=O)CC(=O)/C=C/c1cccn1Cc1ccccc1Cl [RDS1759]	7.5 µM	–
CCc1ccc(N2CC(O)Cn3c2nc2c3c(=O)n(C)c(=O)n2C)cc1 (stereo unspecified) [STOCK2S-18057 (3)]	–	> 100 µM
CCCCCn1c(=O)c2c(nc3n2CC(C)CN3c2ccc(OC)cc2)n(C)c1=O (stereo unspecified) [STOCK4S-37006 (4)]	97 µM	100 µM
CCOc1ccc(N2CC(O)Cn3c2nc2c3c(=O)n(CC(=O)OCc3ccccc3)c(=O)n2C)cc1 (stereo unspecified) [STOCK4S-60534 (6)]	33 µM	28.5 µM
CCCCCn1c(=O)c2c(nc3n2CCCN3c2ccc(Oc3ccccc3)cc2)n(C)c1=O [STOCK5S-18255 (2)]	25 µM	69 µM
CCOc1ccc(N2CC(O)Cn3c2nc2c3c(=O)n(CC(N)=O)c(=O)n2C)cc1 (stereo unspecified) [STOCK5S-55040 (5)]	–	> 100 µM
